Bridge positions count the residues as written; N and C are the ends. Peptide text beside a SMILES is read from it.
Assays:
Assay type in all cases: cell-based, human
[1] = system: Kv1.3/1.7 S3-S4 chimeric channel; assay: Whole-cell patch clamp, chimeric channel; conditions: current at 495 ms, +30 mV, IC50 could not be fitted, mean ± SD, n = 5-6
Excerpt: (§1) To investigate the structural determinants underlying the differential regulatory effects of MrVIII on Kv1 channels, we employed a chimeric channel strategy. Using Kv1.3 as the template, the S1-S2, S3-S4, and S5-S6 transmembrane helices and their respective linkers from Kv1.1 were inserted to generate chimeras, generating the Kv1.3/1.1 S1-S2, Kv1.3/1.1 S3-S4, and Kv1.3/1.1 S5-S6 chimeric channels. […] These findings indicate that the S3-S4 is the key determinant for the differential inhibition of Kv1.1 and Kv1.3 by MrVIII. To further validate this conclusion, we constructed a reverse chimeric channel using Kv1.1 as the template, inserting the corresponding regions from Kv1.3 into Kv1.1. […] This finding more directly illustrates the exchange of the channel's voltage-dependence phenotype in toxin inhibition by swapping this S3-S4 between Kv1.1 and Kv1.3. […] In addition to confirming the differential role of S3-S4 between Kv1.1 and Kv1.3, we also substituted the S3-S4 of Kv1.4 and Kv1.7 into Kv1.3 to analyze MrVIII's inhibition profile. […] The IC50 for Kv1.3/1.7 S3-S4 could not be fitted, and inhi%(495 ms) was only 23.1 ± 10.0% (Fig. S2, E and F).
(§2) The cDNA of hKv1.1, hKv1.2, hKv1.3, rKv1.4, hKv1.5, mKv1.6, and hKv1.7 were subcloned into mammalian expression vectors pcDNA3.1 or pCMV-blank vectors, as well as other plasmids described previously ([35]). Channel mutants were generated by site-directed mutations. Briefly, the parental channel plasmid was amplified using a pair of oppositely directed primers harboring the designed mutation site, with KOD Fx (TOYOBO Co, Ltd). The resulting PCR mix was treated with FastDigest DpnI (Thermo Fisher Scientific) to remove the methylated template. Ten microliters of the digested product was then used to transform 100 μl E. coli DH5α competent cells. Transformants were randomly picked and sequenced to confirm the presence of the intended mutation.
(§3) CHO-K1 cells were selected for expressing Kv channels due to their lack of endogenous Kv channels, while HEK293 or ND7/23 cells were used for Nav and Cav channel expression. CHO-K1 cells were cultured in a Dulbecco's modified Eagle's medium/Ham's F-12 nutrient mixture (DMEM-F12) medium, and HEK293T and ND7/23 cells in DMEM medium, all supplemented with 10% fetal bovine serum and 1% penicillin-streptomycin (all from Gibco, Thermo Fisher Scientific, Inc) under standard conditions (37 °C, 5% CO2, and saturated humidity). These cell lines were purchased from Stem Cell Bank, Chinese Academy of Sciences. Channel plasmids were cotransfected with pEGFP-N1 (encoding GFP) into the respective cells using lipofectamine 2000, following the manufacturer's instructions (Invitrogen, Thermo Fisher Scientific, Inc.). Nav1.9-GFP plasmid was transfected into ND7/23 using the X-tremeGENE HP DNA Transfection Reagent (Roche). After 4 to 6 h transfection, cells were seeded onto poly-lysine–coated coverslips, and 24 to 36 h later, transfected cells were ready for patch-clamp analysis.
(§4) Patch clamp experiments were conducted using an electrophysiology platform comprising a MultiClamp 700B amplifier and an Axon Digidata 1550 AD/DA convertor (Axon Instruments). Data acquisition was performed with pClamp 10.5 software (Axon Instruments). All experiments were performed at room temperature.
(§5) For Kv current recordings, the bath solution contained (in mM) the following: 140 NaCl, 5 KCl, 1 MgCl2, 2 CaCl2, 10 glucose, and 10 Hepes (pH 7.3, adjusted with NaOH), and the pipette solution contained (in mM) the following: 140 KCl, 2.5 MgCl2, 11 EGTA, and 10 Hepes (pH 7.3, adjusted with KOH). Series resistance was maintained below 10 MΩ and compensated to 80%. Concentration–response curves were fitted by the Hill equation to determine the toxin's potency. Whole cell conductance (G) at each depolarizing voltage (V) was determined using the equation: G = I/(V−Vrev), where I is the current amplitude, and Vrev is the reversal potential. […]

[2] = system: Kv1.3/1.1 S1-S2 chimeric channel; assay: Whole-cell patch clamp, chimeric channel; conditions: +30 mV, 500 ms, holding −80 mV, mean ± SD, n = 4-5, read-out: IC50, Kv1.3/1.1 S1-S2 current
Excerpt: as §1, §2, §3, §4, §5

Kv1.3/Y339A = assay: Whole-cell patch clamp, Kv1.3 alanine mutant
Procedure: (§6) MrVIII inhibits Kv1 channels by stabilizing the voltage sensor in its resting state. […] To investigate this hypothesis, we constructed a series of alanine mutants in the S3-S4 region of the Kv1.3 channel, covering residues I336 to L363, to identify critical interactions between the peptide and the channel (Fig. 6A). […] For the remaining mutants that retained functional current expression, we evaluated the inhibitory activity of 100 nM MrVIII. […] The lack of conserved multiple interaction sites may explain the absence of activity on other Kv subfamily channels (Fig. S3). In summary, this study identified key amino acid residues in the S3-S4 region of the Kv1.3 channel that interact with MrVIII, providing a foundation for further exploration into the peptide's mechanism of action.
as §2, §3, §4
as §5, with “potential. The reversal potential for K^+ current was estimated to be −85.6 mV using the Nernst equation. G-V curves were obtained by plotting the normalized conductance as a function of V and fitted by the Boltzmann equation: y = 1/(1+ exp((Va-V)/k)), which Va is the midpoint voltage, V is the test potential, and k is the slope factor. The steady-state fast inactivation of Kv1.3 was measured using a two-pulses protocol.” for “potential.”

Kv1.3 T345A mutant = assay: Whole-cell patch clamp, Kv1.3 alanine mutant; conditions: 100 nM MrVIII, +30 mV; n = 4–7
Procedure: as §6, §2, §3, §4
as §5, with “potential. The reversal potential for K^+ current was estimated to be −85.6 mV using the Nernst equation. G-V curves were obtained by plotting the normalized conductance as a function of V and fitted by the Boltzmann equation: y = 1/(1+ exp((Va-V)/k)), which Va is the midpoint voltage, V is the test potential, and k is the slope factor. The steady-state fast inactivation of Kv1.3 was measured using a two-pulses protocol.” for “potential.”

Kv1.3 S359A mutant = assay: Whole-cell patch clamp, Kv1.3 alanine mutant; conditions: 100 nM MrVIII, +30 mV; n = 4–7
Procedure: as §6, §2, §3, §4
as §5, with “potential. The reversal potential for K^+ current was estimated to be −85.6 mV using the Nernst equation. G-V curves were obtained by plotting the normalized conductance as a function of V and fitted by the Boltzmann equation: y = 1/(1+ exp((Va-V)/k)), which Va is the midpoint voltage, V is the test potential, and k is the slope factor. The steady-state fast inactivation of Kv1.3 was measured using a two-pulses protocol.” for “potential.”

Kv1.3 Q355A mutant = assay: Whole-cell patch clamp, Kv1.3 alanine mutant; conditions: 100 nM MrVIII, +30 mV; n = 4–7
Procedure: as §6, §2, §3, §4
as §5, with “potential. The reversal potential for K^+ current was estimated to be −85.6 mV using the Nernst equation. G-V curves were obtained by plotting the normalized conductance as a function of V and fitted by the Boltzmann equation: y = 1/(1+ exp((Va-V)/k)), which Va is the midpoint voltage, V is the test potential, and k is the slope factor. The steady-state fast inactivation of Kv1.3 was measured using a two-pulses protocol.” for “potential.”

CC[C@H](C)[C@@H]1NC(=O)[C@H](Cc2ccc(O)cc2)NC(=O)[C@H](CCC(N)=O)NC(=O)[C@@H]2CCCN2C(=O)[C@@H]2CSSC[C@H](NC(=O)[C@H](C)NC(=O)[C@H](CO)NC(=O)[C@H](CCC(=O)O)NC(=O)[C@H](CCC(=O)O)NC(=O)[C@@H](N)[C@@H](C)O)C(=O)NCC(=O)NCC(=O)N[C@@H](Cc3ccccc3)C(=O)N[C@@H](CC(N)=O)C(=O)N[C@@H](C)C(=O)N[C@@H](CCCNC(=N)N)C(=O)N[C@H]3CSSC[C@H](NC1=O)C(=O)N[C@@H](CCCCN)C(=O)NCC(=O)N[C@@H](Cc1c[nH]c4ccccc14)C(=O)N[C@@H](CCCNC(=N)N)C(=O)N[C@@H]([C@@H](C)O)C(=O)N[C@@H](CCCCN)C(=O)N[C@@H](CCCNC(=N)N)C(=O)N[C@H](C(=O)N[C@@H](CC(C)C)C(=O)N[C@@H](CC(N)=O)C(=O)N1CCC[C@H]1C(=O)O)CSSC[C@H](NC(=O)[C@H](CCCCN)NC(=O)[C@H](Cc1c[nH]cn1)NC(=O)[C@H](CC(C)C)NC(=O)[C@@H]1CCCN1C3=O)C(=O)N2 [MrVIII] (H-TEESACGGFNARCPLHKCCPQYICKGWRTKRCLNP-OH; disulfide 6-19, 13-24, 18-32; N-terminus and C-terminus assumed)
inhi%(495 ms), Kv1.3/1.7 S3-S4 current [1]: 23.1 ± 10.0% | IC50 [2]: 1.9 ± 1.1 nM | decrease of inhibitory potency vs WT Kv1.3, Y339A (Kv1.3/Y339A; 100 nM MrVIII on mutant compared with 10 nM on WT Kv1.3, +30 mV, n = 4–7): more than 10 fold | inhibition of peak current of Kv1.3/Y339A (Kv1.3/Y339A; 10 μM MrVIII, +30 mV, mean ± SD, n = 4–6, SD): 24.9 ± 6.0% | reduction in inhibitory potency vs WT Kv1.3, T345A (Kv1.3 T345A mutant): more than 5 fold | reduction in inhibitory potency vs WT Kv1.3, S359A (Kv1.3 S359A mutant): more than 5 fold | reduction in inhibitory potency vs WT Kv1.3, Q355A (Kv1.3 Q355A mutant): more than 5 fold

Reference: paper PMC11984586, “A novel spider toxin as a selective antagonist of the Kv1 subfamily of voltage-gated potassium channels through gating modulation” (The Journal of Biological Chemistry, 2025)
